Laboratory results from patent US20130317056A1, “NEURONAL NICOTINIC AGONISTS AND METHODS OF CORRELATING COMT SNPS” (ABBVIE INC., priority 2012, published 2013).

How the values were obtained:
Type in all cases: in vivo, human
[1] = tested on: clinically stable subjects with schizophrenia; test: Disposition of subjects and tolerability, Clinical Study A
Description: A Phase 2a proof-of-concept (POC) study in clinically stable subjects with schizophrenia who were clinically stable and received stable doses of atypical antipsychotic therapy. The study was a Phase 2, multi-center, randomized, double-blind, placebo-controlled, parallel group study designed to evaluate the safety and efficacy of doses of (4s)-4-(5-phenyl-1,3,4-thiadiazol-2-yloxy)-1-azatricyclo[3.3.1.1^3,7]decane (Compound A) in clinically stable male and female subjects (ages 20 to 55, inclusive) with a Diagnostic and Statistical Manual of Mental Disorders—Fourth Edition, Text Revision (DSM-IV-TR) diagnosis of schizophrenia. Psychiatric diagnoses were confirmed using the Mini-International Neuropsychiatric Interview (MINI) version 6.0.0. The criteria for clinical stability was determined by a combination of retrospective data (over the 4 months prior to the start of Screening, which will be supported by clinical records, patient, identified responsible contact person, and physician interviews), and prospective data assessed during the Prospective Stabilization Period of 28 to 42 days duration.
The study consisted of a screening period of at least 28 and up to 42 days, a 84-day outpatient treatment period, a 14-day post-treatment period, and a post-treatment follow-up period. The screening period consisted of three visits: Screening Visit 1, Screening Visit 2, and Day −1. Upon completion of Day −1 procedures, eligible subjects were randomized through an Interactive Voice Response/Interactive Web-Based (IVR/IWB) system. Subjects were randomized in an equal ratio to one of three treatment groups (placebo, 10 mg Compound A, or 25 mg Compound A).
Subjects completed 2 visits during the screening period. Study site personnel contacted each subject by telephone on Day 21, 35, and 70 of the 84-day treatment period to discuss study drug compliance, antipsychotic medication compliance, concomitant medication use, substance use, and any adverse events.
A total of 207 subjects were randomized.

[2] = tested on: clinically stable subjects with schizophrenia; test: CANTAB cognition battery, Clinical Study A; conditions: 10 mg and 25 mg dose groups
Description: The primary endpoint was the MCCB composite score, and the primary endpoint analysis was the change on the MCCB composite score from baseline to endpoint versus placebo. Other secondary measures included the MCCB domains, the NSA-16, the CANTAB cognition battery (measured at different time points from the MCCB), and the UPSA-2. The Positive and Negative Syndrome Scale (PANSS) was included to document stability in schizophrenia symptomatology.
The Cambridge Neuropsychological Test Automated Battery (CANTAB) is a computer-based cognitive assessment system consisting of a battery of neuropsychological tests, administered to subjects using a touch screen computer. […] The CANTAB computerized system will be employed to explore the effects of Compound A on cognition. The tests assess the following cognitive domains: executive function, spatial memory, attention and episodic memory. The CANTAB battery took approximately 40 minutes to administer and was given on Days 14, 28, 56, 84 and 98.

[3] = tested on: subjects with schizophrenia who were not current smokers; test: MCCB composite score in non-smokers by COMT SNP, Clinical Study A; conditions: for MCCB composite score, change score: subjects who were not current smokers; for MCCB Change from Baseline to Final Mean(SD) / MCCB Between-group Difference (Pooled SD) / MCCB Effect Size (Raw mean): non-smokers; for treatment effect on MCCB: nonsmokers
Description: Analysis of the data by cigarette smoking status (current smoker or current nonsmoker) indicated a significant […] interaction (p=0.015).
A blood sample for genotyping was collected from each subject who consented. Genomic DNA was isolated from whole blood using the FlexiGene DNA AGF3000 kit (Qiagen, Valencia, Calif.), on an AutogenFlex 3000 (AutoGen, Holliston, Mass.). Genotypes were determined using the Pyrosequencing detection method (USA—Qiagen, Inc., Valencia, Calif.). Individuals performing the genotyping were blinded to clinical trial data. The significance of the minor allele against the major allele is shown in column marked “Treatment genotype p-value” (Tables 6 and 7).
A similar dose-response trend was observed across the four COMT SNPs in the population of nonsmokers as well (data not shown).

[4] = RS4633 C/C (major allele), 25 mg vs placebo
[5] = RS4633 T/T or C/T (minor allele), 10 mg vs placebo
[6] = RS4633 T/T or C/T (minor allele), 25 mg vs placebo
[7] = RS4680 A/A or G/A (minor allele), 10 mg vs placebo
[8] = RS4680 A/A or G/A (minor allele), 25 mg vs placebo
[9] = RS4680 G/G (major allele), 25 mg vs placebo
[10] = RS4818 C/C (major allele), 25 mg vs placebo
[11] = RS4818 G/C or G/G (minor allele), 10 mg vs placebo
[12] = RS4818 G/C or G/G (minor allele), 25 mg vs placebo
[13] = RS6269 A/A (major allele), 25 mg vs placebo
[14] = RS6269 G/G or A/G (minor allele), 10 mg vs placebo
[15] = RS6269 G/G or A/G (minor allele), 25 mg vs placebo

c1ccc(-c2nnc(O[C@@H]3C4CC5C[C@H]3C[N@](C5)C4)s2)cc1 [Compound A, (4s)-4-(5-phenyl-1,3,4-thiadiazol-2-yloxy)-1-azatricyclo[3.3.1.1^3,7]decane]
Discontinuation: Adverse event ([1]; 10 mg QD): 4 (5.8) n (%)
Discontinuation: Adverse event ([1]; 25 mg QD): 3 (4.5) n (%)
Discontinuation: Adverse event ([1]; Compound A overall): 7 (5.1) n (%)
tolerability ([1]; subjects with schizophrenia, doses up to 25 mg QD, including 10 mg QD and 25 mg QD): well tolerated
results on the CANTAB battery relative to MCCB results [2]: consistent
MCCB composite score, change score ([3]; 10 mg, p=0.021): +2.1
MCCB composite score, change score ([3]; 25 mg, p=0.001): +4.5
MCCB Change from Baseline to Final Mean(SD) ([3]; RS4633 C/C (major allele), 25 mg): 7.4(6.1)
MCCB Between-group Difference (Pooled SD) [3, 4]: 8.4(5.1)
MCCB Effect Size (Raw mean) [3, 4]: 1.65
MCCB Change from Baseline to Final Mean(SD) ([3]; RS4633 T/T or C/T (minor allele), 10 mg): 2.4(7.3)
MCCB Between-group Difference (Pooled SD) [3, 5]: 2.7(6.1)
MCCB Effect Size (Raw mean) [3, 5]: 0.44
MCCB Change from Baseline to Final Mean(SD) ([3]; RS4633 T/T or C/T (minor allele), 25 mg): 2.4(5.4)
MCCB Between-group Difference (Pooled SD) [3, 6]: 2.7(4.9)
MCCB Effect Size (Raw mean) [3, 6]: 0.55
MCCB Change from Baseline to Final Mean(SD) ([3]; RS4680 A/A or G/A (minor allele), 10 mg): 2.2(7.5)
MCCB Between-group Difference (Pooled SD) [3, 7]: 2.4(6.4)
MCCB Effect Size (Raw mean) [3, 7]: 0.38
MCCB Change from Baseline to Final Mean(SD) ([3]; RS4680 A/A or G/A (minor allele), 25 mg): 2.4(5.4)
MCCB Between-group Difference (Pooled SD) [3, 8]: 2.6(4.7)
MCCB Effect Size (Raw mean) [3, 8]: 0.55
MCCB Change from Baseline to Final Mean(SD) ([3]; RS4680 G/G (major allele), 25 mg): 7.4(6.1)
MCCB Between-group Difference (Pooled SD) [3, 9]: 8.4(5.1)
MCCB Effect Size (Raw mean) [3, 9]: 1.65
MCCB Change from Baseline to Final Mean(SD) ([3]; RS4818 C/C (major allele), 25 mg): 1.3(6.7)
MCCB Between-group Difference (Pooled SD) [3, 10]: 1.8(5.3)
MCCB Effect Size (Raw mean) [3, 10]: 0.34
MCCB Change from Baseline to Final Mean(SD) ([3]; RS4818 G/C or G/G (minor allele), 10 mg): 1.2(3.8)
MCCB Between-group Difference (Pooled SD) [3, 11]: 1.8(3.9)
MCCB Effect Size (Raw mean) [3, 11]: 0.46
MCCB Change from Baseline to Final Mean(SD) ([3]; RS4818 G/C or G/G (minor allele), 25 mg): 5.8(5.3)
MCCB Between-group Difference (Pooled SD) [3, 12]: 6.4(4.8)
MCCB Effect Size (Raw mean) [3, 12]: 1.33
MCCB Change from Baseline to Final Mean(SD) ([3]; RS6269 A/A (major allele), 25 mg): 1.9(6.3)
MCCB Between-group Difference (Pooled SD) [3, 13]: 2.2(4.9)
MCCB Effect Size (Raw mean) [3, 13]: 0.45
MCCB Change from Baseline to Final Mean(SD) ([3]; RS6269 G/G or A/G (minor allele), 10 mg): 1.0(3.5)
MCCB Between-group Difference (Pooled SD) [3, 14]: 1.9(3.9)
MCCB Effect Size (Raw mean) [3, 14]: 0.49
MCCB Change from Baseline to Final Mean(SD) ([3]; RS6269 G/G or A/G (minor allele), 25 mg): 5.9(5.6)
MCCB Between-group Difference (Pooled SD) [3, 15]: 6.8(5.2)
MCCB Effect Size (Raw mean) [3, 15]: 1.31
treatment effect on MCCB ([3]; minor allele of the four COMT SNPs): highly robust
treatment effect on MCCB ([3]; subjects containing the major allele): meaningful effect
